According to US7705021B2, “Isoindolone compounds, compositions containing the same, and methods of use thereof for the treatment of viral infections related to the etiology of cancer” (Fox Chase Cancer Center, priority 2005, dated 2010):

Columns and labels:
[1] = tested on: HLR (HeLa Luciferase Reporter)-Elk-1 cells; assay: MAPK signaling reporter assay (Elk-1 luciferase, EGF-stimulated); format: cell-based; settings: Homo sapiens, 5 h, HLR-Elk-1 cells, EGF 10 ng/ml stimulation, luciferase after five hours
Experimental: The present example describes assays for assessing MAPK pathway signaling modulation mediated by the compounds and compositions described herein. Specifically, compounds of the invention have been assessed in an ELK-1 luciferase reporter assay in HeLa cells to obtain an IC50 measurement as well as to assess their anti-proliferative capacity. Following 72 hours of serum starvation, HLR (HeLa Luciferase Reporter)-Elk-1 cells (30,000 cells per well) were incubated for one hour in the presence or absence of various concentration of inhibitors prior to stimulation of Elk1 release by EGF addition (10 ng/ml). The amount of Elk1 release was measured after five hours using Bright-Glo Luciferase assay (Promega Co., Madison, Wis.).

HCT-116 cells = assay: Proliferation assay (WST-1); format: cell-based; settings: Homo sapiens, HCT-116, 48 hours
Experimental: Five thousand HCT-116 cells were seeded into each well of a 96 well flat bottom plate and incubated over night at 37° C. in 5% CO2. The growth of plated cells was measured by adding […] WST-1 reagent (Roche Applied Sciences, Germany) to three control wells and measuring OD650 and OD450 absorbances with a SpectraMax250 plate reader. If the OD650-OD450 values were above 0.5, the remainder of the plate was used for incubation with compounds or solvent control for 48 hours. After this incubation, WST-1 reagent was added to the wells and OD650-OD450 values were calculated as before. Triplicate wells were assayed for each condition and standard deviation was determined; all experiments were performed at least three times independently.

| Structure (SMILES) | IC50 [1] | inhibition at 60 µM (HCT-116 cells) | GI50 (HCT-116 cells) |
| --- | --- | --- | --- |
| COc1cc(CN2C(=O)c3ccccc3C2Cc2ccccn2)ccc1OCc1ccccc1 (stereo not drawn) [Compound 11, 2-(4-benzyloxy-3-methoxy-benzyl)-3-(2-pyridin-2-yl-methyl)-2,3-dihydro-isoindol-1-one] | 43 ± 6.9 µM | 26% |  |
| COc1cc(C2(OC)c3ccccc3C(=O)N2CCc2ccccn2)ccc1OCc1ccccc1 (stereo not drawn) [Compound 7, 3-(4-Benzyloxy-3-methoxy-phenyl)-3-methoxy-2-(2-pyridin-2-yl-ethyl)-2,3-dihydro-isoindol-1-one] | 22.2 ± 6.8 µM |  | 22.2 ± 5.3 µM |
| COc1cc(C2c3ccccc3C(=O)N2CCc2ccccn2)ccc1OCc1ccccc1 (stereo not drawn) [Compound 8, 3-(4-Benzyloxy-3-methoxy-phenyl)-2-(2-pyridin-2-yl-ethyl)-2,3-dihydro-isoindol-1-one] | 31.8 ± 6.1 µM | 21% |  |
